pEC50: −log10 of the molar value. Like-named read-outs stand apart in the source and are kept apart here.
Test system: HCV pseudoparticles (genotype 1a HCV E1 and E2 envelope, H77C isolate)
Test: microbe, parasite or virus in culture
Format: cell-based
Details: Hepatitis C virus
[1] = Huh-7, read-out: Activity (EC50 class), HCV pseudoparticles (genotype 1a, H77C) in Huh7 cells, EC50 expressed as class A/B
[2] = Huh-7, 48 h, HCV pseudoparticles, Huh7 cells, luciferase 2 days after infection, average of duplicates
[3] = Huh-7, 48 h, read-out: Activity (EC50 class), HCV pseudoparticles, Huh7 cells, luciferase 2 days after infection, average of duplicates
[4] = Huh-7, 48 h, read-out: Activity (EC50 class), HCV pseudoparticle infection of Huh7 cells, luciferase 2 days after infection, EC50 expressed as class A/B
[5] = Huh-7, 48 h, HCV pseudoparticle infection of Huh7 cells, luciferase 2 days after infection, average of duplicates
[6] = Huh-7, 48 h, HCV pseudoparticles (genotype 1a, H77C) in Huh7 cells, average of duplicate, luciferase 2 days after infection

Compound: Cc1ccn(-c2ccccc2NC(=O)C(=O)NCC(C)(C)CNC(=O)c2ccc(Nc3nc(NC4(c5ccc(Cl)cc5)CC4)nc(OCC(F)(F)F)n3)cc2)n1 [Compound 3260]
- pEC50 [1]: 8.00 to 11.00

Compound: NC(=O)C(=O)NCC(CO)(CO)CNC(=O)c1ccc(Nc2nc(NC3(c4ccc(Cl)cc4)CC3)nc(OCC(F)(F)F)n2)cc1 [Compound 3838, N^1-(3-(4-((4-((1-(4-chlorophenyl)cyclopropyl)amino)-6-(2,2,2-trifluoroethoxy)-1,3,5-triazin-2-yl)amino)benzamido)-2,2-bis(hydroxymethyl)propyl)oxalamide]
- pEC50 [2]: 10.28
- pEC50 [3]: 8.00 to 11.00

Compound: NC(=O)C(=O)NCC(O)CNC(=O)c1ccc(Nc2nc(NC3(c4ccc(Cl)cc4)CC3)nc(OCC(F)(F)F)n2)cc1 (stereo not drawn) [Compound 3458]
- pEC50 [1]: 8.00 to 11.00

Compound: COC(=O)[C@H](CCNC(=O)C(=O)NCCc1ccccn1)NC(=O)c1ccc(Nc2nc(NC3(c4ccc(Cl)cc4)CC3)nc(OCC(F)(F)F)n2)cc1 [Compound 1306]
- pEC50 [4]: 8.00 to 11.00

Compound: O=C(Nc1cccc(F)c1)C(=O)N(CCO)CCCNC(=O)c1ccc(Nc2nc(NC3(c4ccc(Cl)cc4)CC3)nc(OCC(F)(F)F)n2)cc1 [Compound 3497]
- pEC50 [1]: 8.00 to 11.00

Compound: CC(C)(CNC(=O)C(=O)Nc1nc2c(O)cccc2s1)CNC(=O)c1ccc(Nc2nc(NC3(c4ccc(Cl)cc4)CC3)nc(OCC(F)(F)F)n2)cc1 [Compound 3819]
- pEC50 [3]: 8.00 to 11.00

Compound: COC(=O)[C@H](CCNC(=O)C(=O)NCc1ccc(F)cc1F)NC(=O)c1ccc(Nc2nc(NC3(c4ccc(Cl)cc4)CC3)nc(OCC(F)(F)F)n2)cc1 [Compound 1161]
- pEC50 [4]: 8.00 to 11.00

Compound: CC(=O)Nc1ccc(NC(=O)C(=O)NC[C@H](NC(=O)c2ccc(Nc3nc(NC4(c5ccc(Cl)cc5)CC4)nc(OCC(F)(F)F)n3)cc2)C(=O)O)cn1 [Compound 3762]
- pEC50 [3]: 8.00 to 11.00

Compound: CC(C)(CNC(=O)C(=O)Nc1cccc(C(=O)N2CCCCC2)c1)CNC(=O)c1ccc(Nc2nc(NC3(c4ccc(Cl)cc4)CC3)nc(OCC(F)(F)F)n2)cc1 [Compound 1574]
- pEC50 [4]: 8.00 to 11.00

Compound: CC(C)(CNC(=O)C(N)=O)CNC(=O)c1ccc(Nc2nc(NC3(c4ccc(Cl)cc4)CC3)nc(OCC(F)(F)F)n2)cc1O [Compound 3389]
- pEC50 [1]: 8.00 to 11.00

Compound: COC(=O)[C@H](CNC(=O)C(=O)Nc1ccc(-n2ccc(C(F)(F)F)n2)cc1)NC(=O)c1ccc(Nc2nc(NC3(c4ccc(Cl)cc4)CC3)nc(OCC(F)(F)F)n2)cc1 [Compound 3098]
- pEC50 [1]: 8.00 to 11.00

Compound: CC(C)(CNC(=O)C(=O)Nc1nc2c(Cl)c(Cl)ccc2s1)CNC(=O)c1ccc(Nc2nc(NC3(c4ccc(Cl)cc4)CC3)nc(OCC(F)(F)F)n2)cc1 [Compound 3821]
- pEC50 [3]: 8.00 to 11.00

Compound: O=C(NCC[C@H](NC(=O)c1ccc(Nc2nc(NC3(c4ccc(Cl)cc4)CC3)nc(OCC(F)(F)F)n2)cc1)C(=O)O)C(=O)NC1Cc2ccccc2C1 [Compound 1335]
- pEC50 [4]: 8.00 to 11.00

Compound: Cc1nccn1-c1ccc(NC(=O)C(=O)NC[C@H](NC(=O)c2ccc(Nc3nc(NC4(c5ccc(Cl)cc5)CC4)nc(OCC(F)(F)F)n3)cc2)C(=O)O)cc1 [Compound 3286]
- pEC50 [1]: 8.00 to 11.00

Compound: COC(=O)[C@H](CCNC(=O)C(=O)NCCc1ccc(F)cc1)NC(=O)c1ccc(Nc2nc(NC3(c4ccc(Cl)cc4)CC3)nc(OCC(F)(F)F)n2)cc1 [Compound 1315]
- pEC50 [5]: 8.99
- pEC50 [4]: 8.00 to 11.00

Compound: CC(C)(CNC(=O)C(=O)Nc1ccc(OC(F)F)cc1)CNC(=O)c1ccc(Nc2nc(NC3(c4ccc(Cl)cc4)CC3)nc(OCC(F)(F)F)n2)cc1 [Compound 3146]
- pEC50 [6]: 10.30
- pEC50 [1]: 8.00 to 11.00

Compound: COC(=O)[C@H](CCNC(=O)C(=O)Nc1ccc(OC)cc1)NC(=O)c1ccc(Nc2nc(NC3(c4ccc(Cl)cc4)CC3)nc(OCC(F)(F)F)n2)cc1 [Compound 1232]
- pEC50 [4]: 8.00 to 11.00

Compound: CC1CC(=O)c2ccc(NC(=O)C(=O)NCC(C)(C)CNC(=O)c3ccc(Nc4nc(NC5(c6ccc(Cl)cc6)CC5)nc(OCC(F)(F)F)n4)cc3)cc2O1 (stereo not drawn) [Compound 3336]
- pEC50 [6]: 10.05
- pEC50 [1]: 8.00 to 11.00

Compound: COC(=O)[C@H](CCNC(=O)C(=O)NCc1ccccc1)NC(=O)c1ccc(Nc2nc(NC3(c4ccc(Cl)cc4)CC3)nc(OCC(F)(F)F)n2)cc1 [Compound 1142]
- pEC50 [4]: 8.00 to 11.00

Compound: COC(=O)[C@H](CNC(=O)C(=O)NC1CCCCC1c1ccccc1)NC(=O)c1ccc(Nc2nc(NC3(c4ccc(Cl)cc4)CC3)nc(OCC(F)(F)F)n2)cc1 (stereo partly drawn) [Compound 1305]
- pEC50 [4]: 8.00 to 11.00

Compound: CS(=O)(=O)c1cccc(NC(=O)C(=O)NCC[C@H](NC(=O)c2ccc(Nc3nc(NC4(c5ccc(Cl)cc5)CC4)nc(OCC(F)(F)F)n3)cc2)C(=O)O)c1 [Compound 3632]
- pEC50 [3]: 8.00 to 11.00

Compound: O=C(NCC[C@H](NC(=O)c1ccc(Nc2nc(NC3(c4ccc(Cl)cc4)CC3)nc(OCC(F)(F)F)n2)cc1)C(=O)O)C(=O)Nc1ccc(Oc2cccnc2)cc1 [Compound 3545]
- pEC50 [1]: 8.00 to 11.00

Compound: COC(=O)[C@H](CCNC(=O)C(=O)NCCn1ccnc1C)NC(=O)c1ccc(Nc2nc(NC3(c4ccc(Cl)cc4)CC3)nc(OCC(F)(F)F)n2)cc1 [Compound 1323]
- pEC50 [5]: 8.20
- pEC50 [4]: 8.00 to 11.00

Compound: O=C(NCCNC(=O)c1ccc(Nc2nc(NC3(c4ccc(Cl)cc4)CC3)nc(OCC(F)(F)F)n2)cc1)C(=O)Nc1ccc(F)cc1 [Compound 3373]
- pEC50 [6]: 10.28
- pEC50 [1]: 8.00 to 11.00

Compound: Cc1nc(-c2cccc(NC(=O)C(=O)NCC[C@H](NC(=O)c3ccc(Nc4nc(NC5(c6ccc(Cl)cc6)CC5)nc(OCC(F)(F)F)n4)cc3)C(=O)O)c2)no1 [Compound 3654]
- pEC50 [3]: 8.00 to 11.00

Compound: COC(=O)[C@H](CCNC(=O)C(=O)Nc1cccc(C#CC(C)(C)Cl)c1)NC(=O)c1ccc(Nc2nc(NC3(c4ccc(Cl)cc4)CC3)nc(OCC(F)(F)F)n2)cc1 [Compound 3600]
- pEC50 [3]: 8.00 to 11.00

Compound: COC(=O)[C@H](CNC(=O)C(=O)Nc1cccc(C(=O)Nc2ccccc2)c1)NC(=O)c1ccc(Nc2nc(NC3(c4ccc(Cl)cc4)CC3)nc(OCC(F)(F)F)n2)cc1 [Compound 3691]
- pEC50 [3]: 8.00 to 11.00

Compound: Cn1cc(NC(=O)C(=O)NCC(C)(C)CNC(=O)c2ccc(Nc3nc(NC4(c5ccc(Cl)cc5)CC4)nc(OCC(F)(F)F)n3)cc2)cn1 [Compound 3176]
- pEC50 [1]: 8.00 to 11.00

Compound: Cc1ccc(NC(=O)C(=O)NC(C)(C)CNC(=O)c2ccc(Nc3nc(NC4(c5ccc(Cl)cc5)CC4)nc(OCC(F)(F)F)n3)cc2)cc1 [Compound 3417]
- pEC50 [6]: 10.49
- pEC50 [1]: 8.00 to 11.00

Compound: CC(C)(CNC(=O)C(=O)NCc1ccccc1Cl)CNC(=O)c1ccc(Nc2nc(NC3(c4ccc(Cl)cc4)CC3)nc(OCC(F)(F)F)n2)cc1 [Compound 3003]
- pEC50 [1]: 8.00 to 11.00

Compound: C=Cc1cccc(NC(=O)C(=O)NCC[C@@H](NC(=O)c2ccc(Nc3nc(NC4(c5ccc(Cl)cc5)CC4)nc(OCC(F)(F)F)n3)cc2)C(=O)OC)c1 [Compound 3574]
- pEC50 [1]: 8.00 to 11.00

Compound: CC(F)Oc1cccc(NC(=O)C(=O)NCC[C@H](NC(=O)c2ccc(Nc3nc(NC4(c5ccc(Cl)cc5)CC4)nc(OCC(F)(F)F)n3)cc2)C(=O)O)c1 (stereo partly drawn) [Compound 3633]
- pEC50 [2]: 10.24
- pEC50 [3]: 8.00 to 11.00

Compound: O=C(Nc1ccc(F)cc1)C(=O)N(CCO)CCCNC(=O)c1ccc(Nc2nc(NC3(c4ccc(Cl)cc4)CC3)nc(OCC(F)(F)F)n2)cc1 [Compound 3499]
- pEC50 [6]: 9.34
- pEC50 [1]: 8.00 to 11.00

Compound: O=C(NC[C@H](NC(=O)c1ccc(Nc2nc(NC3(c4ccc(Cl)cc4)CC3)nc(OCC(F)(F)F)n2)cc1)C(=O)Cl)C(=O)Nc1cccc(C(=O)c2ccccc2)c1 [Compound 3748]
- pEC50 [3]: 8.00 to 11.00

Compound: CC(C)(CNC(=O)C(=O)Nc1ccccc1C#N)CNC(=O)c1ccc(Nc2nc(NC3(c4ccc(Cl)cc4)CC3)nc(OCC(F)(F)F)n2)cc1 [Compound 3385]
- pEC50 [1]: 8.00 to 11.00

Compound: COc1ccc(CCNC(=O)C(=O)NCC[C@H](NC(=O)c2ccc(Nc3nc(NC4(c5ccc(Cl)cc5)CC4)nc(OCC(F)(F)F)n3)cc2)C(=O)O)cc1 [Compound 1331]
- pEC50 [4]: 8.00 to 11.00

Compound: O=C(NC/C(=N/C(=O)c1ccc(Nc2nc(NC3(c4ccc(Cl)cc4)CC3)nc(OCC(F)(F)F)n2)cc1)C(=O)O)C(=O)Nc1ccc(N2CCN(Cc3ccccc3)CC2)cc1 [Compound 3169]
- pEC50 [1]: 8.00 to 11.00

Compound: CN(C)C(=O)C(=O)NCC[C@H](NC(=O)c1ccc(Nc2nc(NC3(c4ccc(Cl)cc4)CC3)nc(OCC(F)(F)F)n2)cc1)C(=O)O [Compound 1015, (S)-2-(4-(4-(1-(4-chlorophenyl)cyclopropylamino)-6-(2,2,2-trifluoroethoxy)-1,3,5-triazin-2-ylamino)benzamido)-4-(2-(dimethylamino)-2-oxoacetamido)butanoic acid]
- pEC50 [4]: 8.00 to 11.00

Compound: CC(C)(CNC(=O)C(=O)NC1CCCCCC1)CNC(=O)c1ccc(Nc2nc(NC3(c4ccc(Cl)cc4)CC3)nc(OCC(F)(F)F)n2)cc1 [Compound 1033, N1-(3-(4-(4-(1-(4-chlorophenyl)cyclopropylamino)-6-(2,2,2-trifluoroethoxy)-1,3,5-triazin-2-ylamino)benzamido)-2,2-dimethylpropyl)-N2-cycloheptyloxalamide]
- pEC50 [4]: 8.00 to 11.00

Compound: O=C(NCCCCNC(=O)c1ccc(Nc2nc(NC3(c4ccc(Cl)cc4)CC3)nc(OCC(F)(F)F)n2)cc1)C(=O)N1CCCCC1 [Compound 3401]
- pEC50 [1]: 8.00 to 11.00

Compound: CC(C)(CNC(=O)C(=O)Nc1ccc(F)c(F)c1F)CNC(=O)c1ccc(Nc2nc(NC3(c4ccc(Cl)cc4)CC3)nc(OCC(F)(F)F)n2)cc1 [Compound 3262]
- pEC50 [1]: 8.00 to 11.00

Compound: CC(C)(CNC(=O)C(=O)Nc1ccccc1)CNC(=O)c1ccc(Nc2nc(NC3(c4ccc(Cl)cc4)CC3)nc(OCC(F)(F)F)n2)cc1 [Compound 1537]
- pEC50 [4]: 8.00 to 11.00

Compound: COC(=O)[C@H](CCNC(=O)C(=O)Nc1ccc(-n2cnc(Cl)c2Cl)cc1)NC(=O)c1ccc(Nc2nc(NC3(c4ccc(Cl)cc4)CC3)nc(OCC(F)(F)F)n2)cc1 [Compound 3124]
- pEC50 [6]: 7.74
- pEC50 [1]: 8.00 to 11.00

Compound: O=C(Nc1cccc(F)c1)C(=O)N1CCCC(CNC(=O)c2ccc(Nc3nc(NC4(c5ccc(Cl)cc5)CC4)nc(OCC(F)(F)F)n3)cc2)C1 (stereo not drawn) [Compound 3479]
- pEC50 [1]: 8.00 to 11.00
